Data from US9453034B2, “C2-azaspiro iminothiazine dioxides as BACE inhibitors, compositions, and their use” (Merck Sharp & Dohme Corp., priority 2013, dated 2016).

Assays:
[1] = biological target: soluble human BACE1 catalytic domain (Homo sapiens (Human), UniProt P56817); experiment: BACE1 HTRF FRET Assay; format: biochemical; conditions: Ki calculated from IC50 using the Cheng-Prusoff equation; QSY7-APPswe-Eu substrate, pH 5.0
Text: Reagents: Na^+-Acetate pH 5.0; 1% Brij-35; Glycerol; Dimethyl Sulfoxide (DMSO);
A homogeneous time-resolved FRET assay can be used to determine IC50 values for inhibitors of the soluble human BACE1 catalytic domain. This assay monitors the increase of 620 nm fluorescence that resulted from BACE1 cleavage of an APPswedish APP^swe mutant peptide FRET substrate (QSY7-[…]-Europium-amide). This substrate contains an N-terminal QSY7 moiety that serves as a quencher of the C-terminal Europium fluorophore (620 nm Em). […] Inhibition of BACE1 cleavage of the QSY7-APP^swe-Eu substrate by inhibitors is manifested as a suppression of 620 nm fluorescence.
Reactions are initiated by addition of 10 μl of 600 nM QSY7-APP^swe-Eu substrate (200 nM final) to give a final reaction volume of 30 μl in a 384 well Nunc HTRF plate. The reactions are incubated at 30° C. for 1.5 hours. The 620 nm fluorescence is then read on a Rubystar HTRF plate reader (BMG Labtechnologies) using a 50 millisecond delay followed by a 400 millisecond acquisition time window. Inhibitor IC50 values are derived from non-linear regression analysis of concentration response curves.

[2] = biological target: purified human autoBACE-2 (Homo sapiens (Human), UniProt Q9Y5Z0); experiment: BACE-2 Assay (BACE-HTRF assay); format: biochemical; conditions: Ki calculated from IC50 using the Cheng-Prusoff equation; QSY7-EISEVNLDAEFC-Eu-amide substrate, pH 5.0; read-out: BACE2 Ki
Chain of purified human autoBACE-2 (Q9Y5Z0 63-473): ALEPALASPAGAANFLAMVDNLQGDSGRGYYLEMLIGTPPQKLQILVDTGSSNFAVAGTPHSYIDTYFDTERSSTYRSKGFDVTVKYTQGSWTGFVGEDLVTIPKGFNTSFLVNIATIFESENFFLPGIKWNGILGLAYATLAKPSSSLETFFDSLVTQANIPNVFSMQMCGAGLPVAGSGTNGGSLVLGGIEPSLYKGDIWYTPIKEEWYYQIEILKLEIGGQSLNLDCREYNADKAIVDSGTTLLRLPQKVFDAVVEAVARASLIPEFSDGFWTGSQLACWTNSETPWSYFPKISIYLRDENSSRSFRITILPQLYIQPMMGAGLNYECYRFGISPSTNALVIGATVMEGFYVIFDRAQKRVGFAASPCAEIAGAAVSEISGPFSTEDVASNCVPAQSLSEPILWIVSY
Experimental: Inhibitor IC50s at purified human autoBACE-2 are determined in a time-resolved endpoint proteolysis assay that measures hydrolysis of the QSY7-EISEVNLDAEFC-Eu-amide FRET peptide substrate (BACE-HTRF assay). BACE-mediated hydrolysis of this peptide results in an increase in relative fluorescence (RFU) at 620 nm after excitation with 320 nm light. Inhibitor compounds, prepared at 3× the desired final concentration in 1×BACE assay buffer (20 mM sodium acetate pH 5.0, 10% glycerol, 0.1% Brij-35) supplemented with 7.5% DMSO are pre-incubated with an equal volume of autoBACE-2 enzyme diluted in 1×BACE assay buffer (final enzyme concentration 1 nM) in black 384-well NUNC plates for 30 minutes at 30° C. The assay is initiated by addition of an equal volume of the QSY7-EISEVNLDAEFC-Eu-amide substrate (200 nM final concentration, Km=8 μM […] for autoBACE-2) prepared in 1×BACE assay buffer supplemented with 7.5% DMSO and incubated for 90 minutes at 30° C. DMSO is present at 5% final concentration in the assay. Following laser excitation of sample wells at 320 nm, the fluorescence signal at 620 nm is collected for 400 ms following a 50 μs delay on a RUBYstar HTRF plate reader (BMG Labtechnologies). Raw RFU data is normalized to maximum (1.0 nM BACE/DMSO) and minimum (no enzyme/DMSO) RFU values. IC50s are determined by nonlinear regression analysis (sigmoidal dose response, variable slope) of percent inhibition data with minimum and maximum values set to 0 and 100 percent respectively. Similar IC50s are obtained when using raw RFU data. The Ki values are calculated from the IC50 using the Cheng-Prusoff equation.

Chain of soluble human BACE1 catalytic domain (P56817 75-416): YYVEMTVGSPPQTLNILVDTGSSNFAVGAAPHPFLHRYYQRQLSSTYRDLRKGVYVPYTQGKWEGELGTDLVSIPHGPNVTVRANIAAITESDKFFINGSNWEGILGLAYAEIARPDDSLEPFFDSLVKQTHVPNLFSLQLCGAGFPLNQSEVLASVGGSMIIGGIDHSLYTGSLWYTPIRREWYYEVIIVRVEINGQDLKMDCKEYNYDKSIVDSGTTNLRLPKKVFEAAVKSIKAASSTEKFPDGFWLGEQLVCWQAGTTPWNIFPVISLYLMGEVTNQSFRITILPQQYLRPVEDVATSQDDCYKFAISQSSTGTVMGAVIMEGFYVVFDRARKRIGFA

Ki [1] [nM] | Ki [2] [nM] | Compound
1.7 | 1.4 | CN1CC2(C1)C(=N)N[C@](C)(c1cc(NC(=O)c3ccc(C#N)cn3)ccc1F)CS2(=O)=O [Example 1, (R)-5-cyano-N-(4-fluoro-3-(9-imino-2,7-dimethyl-5,5-dioxido-5-thia-2,8-diazaspiro[3.5]nonan-7-yl)phenyl)picolinamide]
6.1 | 1.2 | CN1CC2(C1)C(=N)N[C@](C)(c1cc(NC(=O)c3ccc(F)cn3)ccc1F)CS2(=O)=O [Example 2, 5-fluoro-N-{4-fluoro-3-[(7R)-9-imino-2,7-dimethyl-5,5-dioxido-5-thia-2,8-diazaspiro[3.5]non-7-yl]phenyl}pyridine-2-carboxamide]
7.9 | 6.2 | COc1cnc(C(=O)Nc2ccc(F)c([C@]3(C)CS(=O)(=O)C4(CN(C)C4)C(=N)N3)c2)cn1 [Example 4, N-{4-fluoro-3-[(7R)-9-imino-2,7-dimethyl-5,5-dioxido-5-thia-2,8-diazaspiro[3.5]non-7-yl]phenyl}-5-methoxypyrazine-2-carboxamide]
2.2 | 0.4 | CN1CC2(C1)C(=N)N[C@](C)(c1cc(NC(=O)c3ccc(Cl)cn3)ccc1F)CS2(=O)=O [Example 5, 5-chloro-N-{4-fluoro-3-[(7R)-9-imino-2,7-dimethyl-5,5-dioxido-5-thia-2,8-diazaspiro [3.5]non-7-yl]phenyl}pyridine-2-carboxamide]
3.3 | 10.3 | CN1CC2(C1)C(=N)N[C@](C)(c1cc(NC(=O)c3ccc(OC(F)(F)F)cn3)ccc1F)CS2(=O)=O [Example 6, N-{4-fluoro-3-[(7R)-9-imino-2,7-dimethyl-5,5-dioxido-5-thia-2,8-diazaspiro[3.5]non-7-yl]phenyl}-5-(trifluoromethoxy) pyridine-2-carboxamide]
2.7 | 4.3 | CN1CC2(C1)C(=N)N[C@](C)(c1cc(NC(=O)c3ccc(OC(F)F)cn3)ccc1F)CS2(=O)=O [Example 7, 5-(difluoromethoxy)-N-{4-fluoro-3-[(7R)-9-imino-2,7-dimethyl-5,5-dioxido-5-thia-2,8-diazaspiro[3.5]non-7-yl]phenyl}pyridine-2-carboxamide]
4.9 | 1.5 | CN1CC2(C1)C(=N)N[C@](C)(c1cc(NC(=O)c3ccc(OCF)cn3)ccc1F)CS2(=O)=O [Example 8, N-{4-fluoro-3-[(7R)-9-imino-2,7-dimethyl-5,5-dioxido-5-thia-2,8-diazaspiro[3.5]non-7-yl]phenyl}-5-(fluoromethoxy) pyridine-2-carboxamide]
10.4 | 4.9 | COc1cnc(C(=O)Nc2ccc(F)c([C@]3(C)CS(=O)(=O)C4(CN(C)C4)C(=N)N3)c2)c(C)n1 [Example 10, N-{4-fluoro-3-[(7R)-9-imino-2,7-dimethyl-5,5-dioxido-5-thia-2,8-diazaspiro[3.5]non-7-yl]phenyl}-5-methoxy-3-methylpyrazine-2-carboxamide]
1.3 | 1 | Cc1cc(C#N)cnc1C(=O)Nc1ccc(F)c([C@]2(C)CS(=O)(=O)C3(CN(C)C3)C(=N)N2)c1 [Example 11, 5-cyano-N-{4-fluoro-3-[(7R)-9-imino-2,7-dimethyl-5,5-dioxido-5-thia-2,8-diazaspiro[3.5]non-7-yl]phenyl}-3-methylpyridine-2-carboxamide]
2.3 | 30 | CC#CCOc1ccc(C(=O)Nc2ccc(F)c([C@]3(C)CS(=O)(=O)C4(CN(C)C4)C(=N)N3)c2)nc1 [Example 12, 5-(but-2-yn-1-yloxy)-N-{4-fluoro-3-[(7R)-9-imino-2,7-dimethyl-5,5-dioxido-5-thia-2,8-diazaspiro[3.5]non-7-yl]phenyl}pyridine-2-carboxamide]
1.4 | 0.5 | CN1CC2(C1)C(=N)N[C@](C)(c1cc(NC(=O)c3ncc(C#N)cc3C(F)F)ccc1F)CS2(=O)=O [Example 12b, 5-cyano-3-(difluoromethyl)-N-{4-fluoro-3-[(7R)-9-imino-2,7-dimethyl-5,5-dioxido-5-thia-2,8-diazaspiro [3.5]non-7-yl]phenyl}pyridine-2-carboxamide]
6.4 | 8.4 | CN1CCC2(CC1)C(=N)N[C@](C)(c1cc(NC(=O)c3ccc(C#N)cn3)ccc1F)CS2(=O)=O [Example 25, 5-cyano-N-{4-fluoro-3-[(3R)-5-imino-3,9-dimethyl-1,1-dioxido-1-thia-4,9-diazaspiro[5.5]undec-3-yl]phenyl}pyridine-2-carboxamide]
37 | 6.4 | CN1CCC2(CC1)C(=N)N[C@](C)(c1cc(NC(=O)c3ccc(F)cn3)ccc1F)CS2(=O)=O [Example 26, 5-fluoro-N-{4-fluoro-3-[(3R)-5-imino-3,9-dimethyl-1,1-dioxido-1-thia-4,9-diazaspiro[5.5]undec-3-yl]phenyl}pyridine-2-carboxamide]
35 | 24 | COc1ccc(C(=O)Nc2ccc(F)c([C@]3(C)CS(=O)(=O)C4(CCN(C)CC4)C(=N)N3)c2)nc1 [Example 27, N-{4-fluoro-3-[(3R)-5-imino-3,9-dimethyl-1,1-dioxido-1-thia-4,9-diazaspiro[5.5]undec-3-yl]phenyl}-5-methoxypyridine-2-carboxamide]
19 | 29 | COc1cnc(C(=O)Nc2ccc(F)c([C@]3(C)CS(=O)(=O)C4(CCN(C)CC4)C(=N)N3)c2)cn1 [Example 28, N-{4-fluoro-3-[(3R)-5-imino-3,9-dimethyl-1,1-dioxido-1-thia-4,9-diazaspiro[5.5]undec-3-yl]phenyl}-5-methoxypyrazine-2-carboxamide]
12 | 3 | CN1CCC2(CC1)C(=N)N[C@](C)(c1cc(NC(=O)c3ccc(Cl)cn3)ccc1F)CS2(=O)=O [Example 29, (R)-5-chloro-N-(4-fluoro-3-(5-imino-3,9-dimethyl-1,1-dioxido-1-thia-4,9-diazaspiro[5.5]undecan-3-yl)phenyl)picolinamide]
15 | 52 | CN1CCC2(CC1)C(=N)N[C@](C)(c1cc(NC(=O)c3ccc(OC(F)(F)F)cn3)ccc1F)CS2(=O)=O [Example 30]

Compound | Ki [1] [nM] | Ki [2] [nM]
COc1ccc(C(=O)Nc2ccc(F)c([C@]3(C)CS(=O)(=O)C4(CN(C)C4)C(=N)N3)c2)nc1 [Example 3, N-{4-fluoro-3-[(7R)-9-imino-2,7-dimethyl-5,5-dioxido-5-thia-2,8-diazaspiro[3.5]non-7-yl]phenyl}-5-methoxypyridine-2-carboxamide] | 6.3 | 1.6
COc1cnc(C(=O)Nc2ccc(F)c([C@]3(C)CS(=O)(=O)C4(CN(C)C4)C(=N)N3)c2)c(C)c1 [Example 9, N-{4-fluoro-3-[(7R)-9-imino-2,7-dimethyl-5,5-dioxido-5-thia-2,8-diazaspiro[3.5]non-7-yl]phenyl}-5-methoxy-3-methylpyridine-2-carboxamide] | 6.3 | 0.9
CN1CC2(C1)C(=N)N[C@](C)(c1cc(NC(=O)c3ncc(C#N)cc3C3CC3)ccc1F)CS2(=O)=O [Example 12a, 5-cyano-3-cyclopropyl-N-{4-fluoro-3-[(7R)-9-imino-2,7-dimethyl-5,5-dioxido-5-thia-2,8-diazaspiro [3.5]non-7-yl]phenyl}pyridine-2-carboxamide] | 1.3 | 0.8
